SMILES	melting point [°C]
N#CC1CN1C(=O)NC(=O)c1ccc(-c2ccccc2)cc1 (stereo not drawn)	168 to 172
CCOC(=O)CCNC(=O)Oc1c(C)n(C)ccc1=O	171 to 173
COC(=O)[C@@H]1C[C@H]1C(=O)O (relative stereo)	46 to 47
COc1cc(OC)nc(C(CC(=O)C(C)(C)C)C(=O)NS(C)(=O)=O)n1 (stereo not drawn)	97 to 98
CN1CC[C@@]2(c3cccc(O)c3)C[C@@H](N=[N+]=[N-])CC[C@H]2C1 (racemic)	139 to 140
O=C(CNc1c(C(=O)O)[nH]c2cc(Cl)cc(Cl)c12)c1ccccc1Cc1ccccc1	234 to 235
O=CC1=C(Cl)C(=CO)CCC1	127
CNC(=C[N+](=O)[O-])NCc1ccc(Cl)cc1	219 to 220
O=C(NC(CCCN1CCN(c2ncc(F)cn2)CC1)c1ccc(F)cc1)c1ccc(F)cc1 (stereo not drawn)	147 to 148
CN1CC(=O)N(SC(Cl)(Cl)Cl)C1=O	110 to 112
CC1(C)CC2(CC(C)(C)N1O)OC1(CCCCCCCCCCC1)NC2=O	236 to 238
Cn1cc(C2=C(c3cn(C)c4cc([N+](=O)[O-])ccc34)C(=O)N(CO)C2=O)c2ccccc21	209 to 211
Cc1ccc(-c2sc(N)c(C(=O)c3ccc(Cl)cc3)c2CN(C2CCCCC2)C2CCCCC2)cc1	191 to 194
O=C1Cc2cc3c(cc2C(c2ccc(F)cc2)=NN1)OCO3	205 to 207
Cc1noc(-c2c(C)nc(Br)n2C)n1	89
Fc1ccc(NC(=S)NN(c2ccccc2)c2ccccc2)cc1	200
CC(O)c1cc(Cl)cc(Cl)c1O (stereo not drawn)	70
COCOc1ccc(C(=O)OC)c(OCc2ccc(Cl)cc2Cl)c1C	98.8 to 99
Cc1cc(-c2ccc(C(F)(F)F)c(C)c2)nc(-c2cccc(-c3cccc(S(N)(=O)=O)c3)c2)n1	222
CC(C)CC(CO)(CO)CC(C)C	75 to 77

SMILES	melting point [°C]
CCC(CC)Nc1cc(C)nc(Oc2c(C)cc(Cl)cc2C)c1N	72 to 74
COc1nc(I)cc(C(O)C(C)(C)C)c1C (stereo not drawn)	64 to 65
CSC1=NS(=O)(=O)c2cscc21	184 to 186
CCN1C(=O)C(=C2C=C(N3CCCC3)CC(C)(C)C2)SC1=S	234 to 235
COc1ccc(C=C(C#N)c2c[nH]c3ccccc23)cc1OC	139 to 141
COc1cc(OC)c2c(c1)C(C)(C)C1(C=Cc3cc([N+](=O)[O-])cc(OC)c3S1)N2C (stereo not drawn)	131
COC(=O)c1ccc(-c2nc(-c3ccc(OC(F)F)cc3)cs2)cc1	146 to 148
CCCC(CC(=O)NC(=O)OC(C)(C)C)Nc1ccc(Cl)cc1 (stereo not drawn)	76 to 77
CC(C)(C)c1cc(C2SCC(=O)N2CCC(=O)O)cc(C(C)(C)C)c1O (stereo not drawn)	164 to 165
Cc1cc(-c2ccc(C(F)(F)F)cc2)cc(-c2ccnc(-c3cccc(S(N)(=O)=O)c3)c2)n1	> 250
C=CCOC(=O)Cn1c(=O)n(S(=O)(=O)c2ccc(Cl)cc2)c(=O)c2ccccc21	164 to 166
CCC(=O)CSc1cc(C(C)(C)C)c(O)c(C(C)(C)C)c1	55 to 57
O=[N+]([O-])c1cc(Cl)ccc1I(Cl)Cl	53 to 60
COc1nc(C)nc(NC(=O)NS(=O)(=O)c2ccccc2Cc2nnc(SC)s2)n1	140 to 146
Cc1cn(-c2ccc3nnc4c(C)nc(CC(C)C)n4c3c2)c(CC(C)C)n1	134 to 136
O=C1OC(c2ccc(Cl)cc2)C(Cn2cncn2)(c2ccc(Cl)cc2Cl)O1 (stereo not drawn)	178 to 179
O=C1CCC(N2Cc3c(OCc4ccc(CNC5CCOCC5)cc4)cccc3C2=O)C(=O)N1 (stereo not drawn)	231 to 233
Cc1cc(Cl)cc(C(=O)NCC(C)O)c1NC(=O)c1cc(C(F)(F)F)nn1-c1ncccc1Cl (stereo not drawn)	193 to 197
N#Cc1cccc(-c2cc(-c3ccc(C#N)cc3Cl)no2)c1	221 to 223

Further lines, results first:

melting point [°C]	SMILES
135 to 142	COc1ccc2c(c1)OC(CNCCCOc1ccc3cccnc3c1)CO2 (stereo not drawn)
315	Cc1ccc(-c2cnc3c(N)ncnc3n2)cc1
101 to 102	CCOc1ccc2c(c1)cc1n2CCC1
69 to 70	CCOC(=O)CCCOc1ccc(-c2ccc(OCC)cc2)cc1C=O
209 to 211	CCOC1(c2ccccc2)c2cc(Cl)ccc2NC(=O)N1c1ccccc1 (stereo not drawn)
58	COc1ccc(C(=O)Cl)cc1I
166	CCCCNC(=O)Oc1cccc(NC(=O)C=C(C)OC)c1
209 to 212	Cc1cc([N+](=O)[O-])c2[nH]ccc(=O)c2c1
233 to 235	CN1CC[C@@H](c2c(O)cc(O)c3c(=O)cc(-c4cc(Cl)ccc4Br)oc23)[C@@H]1CO
156 to 157	O=C1c2ccccc2C(=O)N1c1cccnc1Cl
154 to 158	CC1=CC2C(CC1)C(c1ccc(F)cc1)=NC(=O)N2C(C)C (stereo not drawn)
157 to 159	COC(=O)c1ccc2oc(-c3ccc(OC)cc3)cc2c1
192 to 195	CCOC(=O)CNC(=O)c1nc2ccc(Cl)nn2c1C
120 to 135	Cc1cc(O)ccc1-c1nc2cc(O)cc(Br)c2o1
197 to 198	O=C1CCCC(=O)N1Nc1ccc([N+](=O)[O-])cc1
86 to 88	O=C1NCCc2ccc(OCCCCN3CCCN(c4cccc(Cl)c4Cl)CC3)cc21
107 to 108	CCOC(=O)c1cnc2occ(Br)c2c1

melting point [°C]	SMILES
140 to 142	c1ccc(-c2nn3c(c2-c2cccc4nsnc24)CCC3)nc1
142 to 143	CC(C(=O)O)c1ccc2c(c1)C(=O)Cc1ccc(Cl)cc1S2 (stereo not drawn)
106 to 107	CCCc1nc(OC)c(N(C)C(=O)N2CCN(c3cc(OC)cc(OC)c3)CC2)cc1C
70 to 71	CCCCc1nc2ccccc2n1CC(=O)O
174	COc1ccc(OCC(O)CN2CCC(Nc3nc4ccccc4n3Cc3ccc(F)cc3)CC2)cc1 (stereo not drawn)
184	COc1ccc(-c2cncc(OC3SCC(O)C(O)C3O)c2)c(OC)c1 (stereo not drawn)
208 to 210	CCc1cccc(CC)c1NC(=O)c1c2n(c(C)c(Br)c1=O)CCCC2
58	COc1ccc(S(=O)(=O)C(C)(CC2CCCCC2)C(=O)NO)cc1 (stereo not drawn)
161 to 163	CN1CCCC1C1CCCN(CC(=O)N2c3ccccc3NC(=O)c3ccccc32)C1 (stereo not drawn)
160 to 161	CNC(=O)c1cc(-c2ccc(OC)cc2)nn(CC=Cc2ccccc2)c1=O
161 to 162	O=S(=O)(CCCCl)Nc1ccc(Oc2cccc3cccnc23)cc1
152 to 155	COC(=O)CC1Cc2ccc(OC)cc2NC1=O (stereo not drawn)
188 to 190	NCCN1CCN(CC(=O)N2c3ccccc3C(=O)Nc3cccnc32)CC1
250 to 251	CSc1ccc(-c2[nH]c3cccc4c3c2CCNC4=O)cc1
67 to 70	COc1cc(C(=O)N2CCN(C(=O)CNC3CCN(Cc4ccccc4)CC3)C(c3ccc(Cl)c(Cl)c3)C2)cc(OC)c1OC (racemic)
132 to 134	O=C(O)Cc1cccc(Cc2nc3c(F)c(F)cc(F)c3s2)c1
141 to 142	COC(=O)c1ccc2oc(-c3cccs3)nc2c1
